The results in this text go back to patent publication US20200199102A1, “COMPOUNDS THAT PARTICIPATE IN COOPERATIVE BINDING AND USES THEREOF” (Revolution Medicines, Inc., priority 2017, published 2020).

pIC50: −log10 of the molar value. Where a SMILES comes first, the peptide text is derived from it. [ ]: non-standard residue; d: D form. MeBmt = C/C=C/C[C@@H](C)[C@@H](O)[C@H](NC)C(=O)O; NMeY = CN[C@@H](Cc1ccc(O)cc1)C(=O)O; NMeF = CN[C@@H](Cc1ccccc1)C(=O)O; NMeT = CN[C@H](C(=O)O)[C@@H](C)O; NMeL = CN[C@@H](CC(C)C)C(=O)O; NMeV = CN[C@H](C(=O)O)C(C)C; NMeA = CN[C@@H](C)C(=O)O; dNMeA = CN[C@H](C)C(=O)O; Abu = CC[C@H](N)C(=O)O; Sar = CNCC(=O)O Bounds are passed on as bounds.

The assay has as its target T1, Cyclophilin A (Homo sapiens, UniProt P62937).
T1 construct: made in house
Briefly: AlphaLISA inhibition of binding of biotinylated Cyclosporin A to FLAG tagged Cyclophilin A. As to conditions: for % signal: AlphaLISA signal; for % signal / % inhibition of CsA binding to Cyclophilin A: test concentration not given; for pIC50: read-out: IC50 value of CsA binding to Cyclophilin A. The text has this: The binding of compounds of the invention to Cyclophilin A can be determined using the following protocol.
This protocol utilizes Perkin Elmers AlphaLISA technology platform to detect cyclosporine analogues by measuring the inhibition of binding of biotinylated Cyclosporin A to FLAG tagged Cyclophilin A.
10×TBST Buffer (Boston BioProducts IBB-181), Biotinylated Cyclosporin A (in-house), FLAG tagged Cyclophilin A (in-house); anti-FLAG Donor beads (PerkinElmer AS103) and Streptavidin Acceptor beads (PerkinElmer AL125); Compounds in DMSO (in-house), Cyclosporin A (LC Labs Cat #C-6000).
Add 20 uL of 6 nM Biotinylated CsA working stock to each well of the 96-well plate. Add 1 uL of test compound (100% DMSO) to each well of the plate using the Janus MTD head and P20 tips (except control wells). Add 1 uL of DMSO to negative control wells and 1 uL of 500 uM Cyclosporin A solution to positive control wells. In the dark, add 20 uL of combined Donor/Acceptor beads to each well. Incubate in the dark for 30 minutes at room temperature. In the dark, add 10 uL of 25 nM Flag tagged CypA working stock to each well. Incubate in the dark for 60 minutes at room temperature. Protect plate from light until reading on Biotek Synergy2 Plate Reader; Alphalisa 96-well protocol (680 excitation/615 emission).

T1 sequence (P62937 whole entry, species assumed): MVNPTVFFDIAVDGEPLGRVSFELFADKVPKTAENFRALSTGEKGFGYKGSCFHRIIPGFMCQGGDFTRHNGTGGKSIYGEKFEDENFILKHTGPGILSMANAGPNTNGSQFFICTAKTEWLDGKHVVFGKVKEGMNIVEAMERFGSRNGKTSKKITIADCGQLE

The term pIC50 denotes the negative decadic logarithm of the IC50, by convention in mol/L. As for `C/C=C/C[C@@H](C)[C@@H](O)[C@H]1C(=O)N[C@@H](CC)C(=O)N(C)CC(=O)N(C)[C@@H](CCCC)C(=O)N[C@@H](C(C)C)C(=O)N(C)[C@@H](CC(C)C)C(=O)N[C@@H](CC)C(=O)N[C@H](C)C(=O)N(C)[C@@H](CC(C)C)C(=O)N(C)[C@@H](CC(C)C)C(=O)N(C)[C@@H](C(C)C)C(=O)N1C` [Compound C104], the “% signal” value was determined as 0.99%, the pIC50 is more than 5.70 and the “% inhibition of CsA binding to Cyclophilin A” value (shortened to “% inhibition of CsA binding”) was 99.01%.
The matching figures for `C/C=C/C[C@@H](C)[C@@H](O)[C@H]1C(=O)N[C@@H](CC)C(=O)N(C)CC(=O)N(C)[C@@H](Cc2ccccc2)C(=O)N[C@@H](CC(C)C)C(=O)N(C)[C@@H](C)C(=O)N[C@@H](C)C(=O)N[C@H](C)C(=O)N(C)[C@@H](CC(C)C)C(=O)N(C)[C@@H](CC(C)C)C(=O)N(C)[C@@H](C(C)C)C(=O)N1C` [Compound C12] (cyclo([MeBmt][Abu][Sar][NMeF]L[NMeA]A[dA][NMeL][NMeL][NMeV])): 3.22%, more than 5.70 and 96.78%.
The matching figures for `C/C=C/C[C@@H](C)[C@@H](O)[C@H]1C(=O)N[C@@H](CC)C(=O)N(C)CC(=O)N(C)[C@H](C)C(=O)N[C@@H](C)C(=O)N(C)CC(=O)N[C@@H](C)C(=O)N[C@H](C)C(=O)N(C)[C@@H](CC(C)C)C(=O)N(C)[C@@H](CC(C)C)C(=O)N(C)[C@@H](C(C)C)C(=O)N1C` [Compound C19] (cyclo([MeBmt][Abu][Sar][dNMeA]A[Sar]A[dA][NMeL][NMeL][NMeV])): 16.79%, more than 5.70 and 83.21%.
In the same order, the values of `C/C=C/C[C@@H](C)[C@@H](O)[C@H]1C(=O)N[C@@H](CC)C(=O)N(C)CC(=O)N(C)[C@H](C)C(=O)N[C@@H](C(C)C)C(=O)N(C)[C@@H](CC(C)C)C(=O)N[C@@H](CC)C(=O)N[C@H](C)C(=O)N(C)[C@@H](CC(C)C)C(=O)N(C)[C@@H](CC(C)C)C(=O)N(C)[C@@H](C(C)C)C(=O)N1C` [Compound C95] (cyclo([Abu][Sar][dNMeA]V[NMeL][Abu][dA][NMeL][NMeL][NMeV][MeBmt])) are 6.90%, more than 5.70 and 93.10%.
`C/C=C/C[C@@H](C)[C@@H](O)[C@H]1C(=O)N[C@@H](CC)C(=O)N(C)CC(=O)N(C)[C@@H]([C@@H](C)O)C(=O)N[C@@H](C(C)C)C(=O)N(C)[C@@H](CC(C)C)C(=O)N[C@@H](CC)C(=O)N[C@H](C)C(=O)N(C)[C@@H](CC(C)C)C(=O)N(C)[C@@H](CC(C)C)C(=O)N(C)[C@@H](C(C)C)C(=O)N1C` [Compound C99] (cyclo([Abu][Sar][NMeT]V[NMeL][Abu][dA][NMeL][NMeL][NMeV][MeBmt])): the “% signal” value turned out to be 2.59%, the pIC50 is more than 5.70 and the “% inhibition of CsA binding” value was determined as 97.41%.
The matching figures for `C/C=C/C[C@@H](C)[C@@H](O)[C@H]1C(=O)N[C@@H](CC)C(=O)N(C)CC(=O)N(C)[C@@H](C(C)C)C(=O)N[C@@H](C(C)C)C(=O)N(C)[C@@H](C)C(=O)N[C@@H](CC(C)C)C(=O)N[C@H](C)C(=O)N(C)[C@@H](CC(C)C)C(=O)N(C)[C@@H](CC(C)C)C(=O)N(C)[C@@H](C(C)C)C(=O)N1C` [Compound C89] (cyclo([MeBmt][Abu][Sar][NMeV]V[NMeA]L[dA][NMeL][NMeL][NMeV])): 3.10%, more than 5.70 and 96.90%.
In the same order, the values of `C/C=C/C[C@@H](C)[C@@H](O)[C@H]1C(=O)N[C@@H](CC)C(=O)N(C)CC(=O)N(C)[C@@H](C)C(=O)N[C@@H](CC(C)C)C(=O)N(C)[C@@H](C)C(=O)N[C@@H](C)C(=O)N[C@H](C)C(=O)N(C)[C@@H](CC(C)C)C(=O)N(C)[C@@H](CC(C)C)C(=O)N(C)[C@@H](C(C)C)C(=O)N1C` [Compound C10] (cyclo([MeBmt][Abu][Sar][NMeA]L[NMeA]A[dA][NMeL][NMeL][NMeV])) are 0.56%, more than 5.70 and 99.44%.
With `C/C=C/C[C@@H](C)[C@@H](O)[C@H]1C(=O)N[C@@H](CC)C(=O)N(C)CC(=O)N(C)[C@@H]([C@@H](C)O)C(=O)N[C@@H](CC(C)C)C(=O)N(C)[C@@H](C)C(=O)N[C@@H](C)C(=O)N[C@H](C)C(=O)N(C)[C@@H](CC(C)C)C(=O)N(C)[C@@H](CC(C)C)C(=O)N(C)[C@@H](C(C)C)C(=O)N1C` [Compound C15] (cyclo([MeBmt][Abu][Sar][NMeT]L[NMeA]A[dA][NMeL][NMeL][NMeV])), the “% signal” value was determined as 2.93%, the pIC50 was more than 5.70 and the “% inhibition of CsA binding” value amounted to 97.07%.
In the same order, the values of `C/C=C/C[C@@H](C)[C@@H](O)[C@H]1C(=O)N[C@@H](CC)C(=O)N(C)CC(=O)N(C)[C@@H]([C@@H](C)O)C(=O)N[C@@H](CC(C)C)C(=O)N(C)[C@@H](CC(C)C)C(=O)N[C@@H](CC(C)C)C(=O)N[C@H](C)C(=O)N(C)[C@@H](CC(C)C)C(=O)N(C)[C@@H](CC(C)C)C(=O)N(C)[C@@H](C(C)C)C(=O)N1C` [Compound C63] (cyclo([MeBmt][Abu][Sar][NMeT]L[NMeL]L[dA][NMeL][NMeL][NMeV])) are 4.64%, more than 5.70 and 95.36%.
In the same order, the values of `C/C=C/C[C@@H](C)[C@@H](O)[C@H]1C(=O)N[C@@H](CC)C(=O)N(C)CC(=O)N(C)[C@@H](CC(C)C)C(=O)N[C@@H](C(C)C)C(=O)N(C)[C@@H](CC(C)C)C(=O)N[C@@H](CC(C)C)C(=O)N[C@H](C)C(=O)N(C)[C@@H](CC(C)C)C(=O)N(C)[C@@H](CC(C)C)C(=O)N(C)[C@@H](C(C)C)C(=O)N1C` [Compound C50] are 6.06%, more than 5.70 and 93.94%.
In the same order, the values of `C/C=C/C[C@@H](C)[C@@H](O)[C@H]1C(=O)N[C@@H](CC)C(=O)N(C)CC(=O)N(C)[C@@H](CC(C)C)C(=O)N[C@@H](C(C)C)C(=O)N(C)[C@@H](CC(C)C)C(=O)N[C@@H](CC)C(=O)N[C@H](C)C(=O)N(C)[C@@H](CC(C)C)C(=O)N(C)[C@@H](CC(C)C)C(=O)N(C)[C@@H](C(C)C)C(=O)N1C` [Compound C98] are 4.70%, more than 5.70 and 95.30%.
Turning to `C/C=C/C[C@@H](C)[C@@H](O)[C@H]1C(=O)N[C@@H](CC)C(=O)N(C)CC(=O)N(C)[C@@H](CC(C)C)C(=O)N[C@@H](C(C)C)C(=O)N(C)CC(=O)N[C@@H](C)C(=O)N[C@H](C)C(=O)N(C)[C@@H](CC(C)C)C(=O)N(C)[C@@H](CC(C)C)C(=O)N(C)[C@@H](C(C)C)C(=O)N1C` [Compound C30], the “% signal” value came to 0.06%, the pIC50 is more than 5.70 and the “% inhibition of CsA binding” value is 99.94%.
The matching figures for `C/C=C/C[C@@H](C)[C@@H](O)[C@H]1C(=O)N[C@@H](CC)C(=O)N(C)CC(=O)N(C)[C@@H](Cc2ccc(O)cc2)C(=O)N[C@@H](CC(C)C)C(=O)N(C)[C@@H](C)C(=O)N[C@@H](C)C(=O)N[C@H](C)C(=O)N(C)[C@@H](CC(C)C)C(=O)N(C)[C@@H](CC(C)C)C(=O)N(C)[C@@H](C(C)C)C(=O)N1C` [Compound C16] (cyclo([MeBmt][Abu][Sar][NMeY]L[NMeA]A[dA][NMeL][NMeL][NMeV])): 2.56%, more than 5.70 and 97.44%.
